Test results taken from patent publication US9273317B2, “Methods and compositions for inhibiting the growth and/or proliferation of MYC-driven tumor cells” (Fred Hutchinson Cancer Research Center, priority 2011, dated 2016).

Assays:
MYC overexpressing cells = experiment: IC261 viability by CellTiter-Glo in cells with or without MYC overexpression; type: cell-based, human; conditions: 48 hrs, HFF with or without c-Myc, Tet21N with or without doxycyclin, IMR-32
Protocol: (§1) a. HFF cell lines with or without c-Myc over-expression were treated with 0-10 uM IC261 for 48 hrs. The cells were exposed to CellTiter-Glo reagent and viability was assessed by ATP-induced chemiluminescence. Values indicate mean±SD. b. Tet21N cells with or without doxycyclin treatment and IMR-32 cells (MYCN+) were treated with 0-30 uM IC261 for 48 hrs. The cells were exposed to CellTiter-Glo reagent and the viability was assessed by ATP-induced chemiluminescence. Values indicate mean±SD. c. Cell growth curves for HFF-pBabe incubated with different concentrations of IC261. d. Cell growth curves for HFF-MYC incubated with different concentrations of IC261.
(§2) As there is strong selection to escape lentiviral-mediated silencing of genes that are necessary for cell growth, we proceeded to evaluate a small molecule inhibitor of CSNK1e enzymatic activity, IC261^33. […] A cohort of ten xenograft bearing mice was randomized into two groups with approximate equal tumor burden; one group was treated with daily subcutaneous injection of IC261 for 8 consecutive days, while the control group was treated with DMSO vehicle only. […] Taken together, the results obtained by genetic knock-down as well as via small molecule inhibitor validate CSNK1e as a potential therapeutic target for MYCN-driven neuroblastoma.

IMR-32 cells (MYCN+) = experiment: IC261 viability by CellTiter-Glo in IMR-32 cells; type: cell-based, human; conditions: 0-30 uM, 48 hrs
Protocol: as §1, §2

[1] = tested on: MYCN amplified neuroblastoma xenograft (IMR32); experiment: IC261 treatment of MYCN amplified neuroblastoma xenograft; type: in vivo, NOD/SCID mice
Protocol: FIG. 3. IC261 treatment blocks MYCN amplified neuroblastoma tumor growth in vivo. a, Representative images of MYCN amplified neuroblastoma xenograft in NOD/SCID mice before and after treatment with either DMSO or IC261. Tumors were engrafted, and allowed to reach a size of about 100 mm^3, then IC261 (21.5 mg/kg) or DMSO was injected subcutaneously daily for 8 days. b, Quantitation of tumor size over the 8-day treatment regimen with either IC261 or DMSO control. Values represent mean tumor volume at each time point (n=5 for each group, error bars indicate SD). c, Immunohistochemical analysis of tumor sections from IC261 and DMSO treatment groups described in a and b. Representative images of H-E, TUNEL and BrdU staining for each group are shown. BrdU was administered 2 h before collection. d. Quantification of TUNEL positive cells and BrdU positive cells per field in DMSO or IC-261 treated xenograft tumors. Error bars indicate SD of means.
as §2

HFF-pB = experiment: High throughput siRNA screen, cell viability by Alamar Blue, control cells; type: cell-based, human; conditions: siRNA pool (3 siRNAs/pool), day 5, average of 3 replicates, relative to median of wells transfected with siRNA to luciferase
Protocol: FIG. 1. Identification of synthetic lethal genes with c-MYC overexpression by high throughput siRNA screening. a, Graphical schematic of the siRNA screen. HFF expressing either c-MYC or transduced with an empty retroviral vector, pB, were plated in 384 well plates. 24 hr later they were transfected with siRNA pools (3 siRNAs/pool) targeting a total of ˜3,311 genes, with one gene targeted per well. At day 5, the viability was quantified utilizing an Alamar Blue staining assay and an EnVision plate reader. b, Graphical representation of cell viability as affected by each siRNA pool in both HFF-pB or HFF-c-MYC and quantified as % relative to mock (on a log10 scale). Values represent the average viability of 3 replicates. […] Relative levels of each gene were calculated using the ΔΔCT method and using GAPDH to normalize mRNA levels within each sample. d, Viability of HFF-pBabe and HFF-Myc following stable, lentiviral based knock-down of MYC-SL genes CSNK1e, PES1 and CECR2. […] Y-axis indicates the % of cells stained with anti-γ-H2AX that scored for nuclear fluorescence levels above a negative control established threshold. Quantitation was obtained by automated microscopy in 96 well format, from triplicate samples. g, Quantitative assessment of Caspase-3 and -7 cleavage following transfection of the same siRNA pools as above (measured by the CaspaseGlo kit, Promega). […]

HFF-MYC = experiment: High throughput siRNA screen, cell viability by Alamar Blue, c-MYC overexpressing cells; type: cell-based, human
Protocol: FIG. 1. Identification of synthetic lethal genes with c-MYC overexpression by high throughput siRNA screening. a, Graphical schematic of the siRNA screen. HFF expressing either c-MYC or transduced with an empty retroviral vector, pB, were plated in 384 well plates. 24 hr later they were transfected with siRNA pools (3 siRNAs/pool) targeting a total of ˜3,311 genes, with one gene targeted per well. At day 5, the viability was quantified utilizing an Alamar Blue staining assay and an EnVision plate reader. b, Graphical representation of cell viability as affected by each siRNA pool in both HFF-pB or HFF-c-MYC and quantified as % relative to mock (on a log10 scale). Values represent the average viability of 3 replicates. A set of siRNAs (targeting 102 genes labeled as light shaded+) caused differential loss of viability (Z score>2) in the HFF-MYC versus control pB. An additional set of siRNAs targeting 20 genes caused selective growth advantage to HFF-MYC. c, CSNK1e, PES1 and CECR2 mRNA levels following lentiviral-mediated shRNA knock-down. Relative levels of each gene were calculated using the ΔΔCT method and using GAPDH to normalize mRNA levels within each sample. d, Viability of HFF-pBabe and HFF-Myc following stable, lentiviral based knock-down of MYC-SL genes CSNK1e, PES1 and CECR2. […] Y-axis indicates the % of cells stained with anti-γ-H2AX that scored for nuclear fluorescence levels above a negative control established threshold. Quantitation was obtained by automated microscopy in 96 well format, from triplicate samples. g, Quantitative assessment of Caspase-3 and -7 cleavage following transfection of the same siRNA pools as above (measured by the CaspaseGlo kit, Promega). […]
We employed a high throughput robotics-based approach for massive parallel testing of an arrayed siRNA library to accurately quantify the effects of siRNAs against ˜3,300 druggable genes and 200 microRNAs on the viability of HFF-MYC (stably transduced with a retroviral vector expressing c-MYC), or a control empty vector, HFF-pB^14, see FIG. 1a for schematic of the experimental set-up). […]

COc1cc(OC)c(C=C2C(O)=Nc3ccccc32)c(OC)c1 [IC261]
differences in IC50, MYC overexpressing versus normal or low MYC expressing cells (MYC overexpressing cells): > 100 fold | sensitivity to IC261 in vitro (IMR-32 cells (MYCN+)): highly sensitive | tumor growth ([1]; 21.5 mg/kg subcutaneously daily for 8 days): effective in halting tumor growth in all treated mice | apoptosis by TUNEL staining of tumor tissue ([1]; after IC261 treatment): very little apoptosis was detected | BrdU labeling of tumor tissue ([1]; after IC261 treatment, BrdU 2 h before collection): marked decrease in BrdU labeling

CTPS
% Viability HFF-pB (HFF-pB): 70.57% | Z score (>than) (HFF-MYC; differential loss of viability HFF-MYC versus HFF-pB): > 2.5 | Ratio pBabe/Myc (HFF-MYC; ratio of percent viability of a given siRNA pool in HFF-pB/HFF-MYC): 3.63 | % Viability HFF-MYC (HFF-MYC; siRNA pool (3 siRNAs/pool), day 5, average of 3 replicates, relative to median of wells transfected with siRNA to luciferase): 19.44%
